Experimental data taken from publication PMC10455244, “Alpha-Mangostin: A Potent Inhibitor of TRPV3 and Pro-Inflammatory Cytokine Secretion in Keratinocytes” (International Journal of Molecular Sciences, 2023).

Molecular target: T1, TRPV3 (Homo sapiens, UniProt Q8NET8)
T1 sequence (Q8NET8 1-790): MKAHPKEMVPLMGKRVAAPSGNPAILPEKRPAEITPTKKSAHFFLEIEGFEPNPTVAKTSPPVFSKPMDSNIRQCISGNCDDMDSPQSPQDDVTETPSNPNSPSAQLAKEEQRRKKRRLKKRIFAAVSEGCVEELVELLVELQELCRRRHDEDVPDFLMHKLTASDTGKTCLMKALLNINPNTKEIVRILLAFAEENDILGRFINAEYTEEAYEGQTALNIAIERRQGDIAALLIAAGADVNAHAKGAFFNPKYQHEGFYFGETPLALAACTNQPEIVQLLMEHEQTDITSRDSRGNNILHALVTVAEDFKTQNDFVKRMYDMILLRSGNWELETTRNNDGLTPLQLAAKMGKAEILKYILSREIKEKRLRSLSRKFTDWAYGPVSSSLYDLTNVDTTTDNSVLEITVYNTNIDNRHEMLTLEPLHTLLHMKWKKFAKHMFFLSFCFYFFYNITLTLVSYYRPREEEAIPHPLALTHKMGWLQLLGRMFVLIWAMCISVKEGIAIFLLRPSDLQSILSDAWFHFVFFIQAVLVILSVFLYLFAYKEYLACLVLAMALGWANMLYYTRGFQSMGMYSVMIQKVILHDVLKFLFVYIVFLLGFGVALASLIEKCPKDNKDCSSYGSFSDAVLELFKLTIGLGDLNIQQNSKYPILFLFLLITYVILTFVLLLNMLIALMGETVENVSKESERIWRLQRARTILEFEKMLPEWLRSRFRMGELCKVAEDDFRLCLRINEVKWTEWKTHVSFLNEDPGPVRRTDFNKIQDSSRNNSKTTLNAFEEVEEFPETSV
Assay: Fura-2 calcium imaging, carvacrol-induced Ca2+ increase in hTRPV3-overexpressing HEK 293T cells
Format: cell-based
Parameters: expressed in transfected cells
Conditions: 300 µM carvacrol; for ∆(F340/F380): control 0.424 ± 0.032
Experimental: Since the TRPV3-mediated calcium influx is reported to contribute to proper skin function, we investigated whether alpha-mangostin inhibits the intracellular calcium increase induced by carvacrol in hTRPV3-overexpressing HEK 293T cells and keratinocytes. […] In hTRPV3-overexpressing HEK 293T cells, ∆(F340/F380) decreased by approximately 25% and 70% upon exposure to 0.3 µM and 3 µM alpha-mangostin, respectively (Figure 3A, 0.424 ± 0.032 vs. 0.316 ± 0.030 and 0.144 ± 0.006, respectively).
Figure 3 Alpha-mangostin (α-MG) inhibited TRPV3-mediated intracellular calcium increase. Cells were perfused with solutions containing 0.3 µM, 3 µM alpha-mangostin or 10 µM 74a before the addition of 300 µM carvacrol (red, green, and blue lines, respectively). Cells only perfused with normal Tyrode (NT) solution in the presence (black line) or absence (purple line) of 300 µM carvacrol were employed as the control. (A) Alpha-mangostin inhibited TRPV3-mediated intracellular calcium increase in response to carvacrol in TRPV3-overexpressing HEK 293T cells. […] The bar graph on the bottom summarizes the change in the intracellular calcium rise inhibited by alpha-mangostin. (B) Alpha-mangostin inhibited TRPV3-mediated intracellular calcium increase in response to carvacrol in normal human epidermal keratinocytes (NHEK). […] The bar graph on the bottom summarizes the change in the intracellular calcium rise inhibited by alpha-mangostin. Data are presented as means ± SEM. ** p < 0.01, *** p < 0.001, **** p < 0.0001.
Fura-2 AM (Thermo Fisher Scientific) was utilized as a fluorescent indicator to measure calcium signal, as described previously. Fura-2 acetoxymethyl ester (Fura-2 AM) is a widely used fluorescent calcium indicator. After crossing the cell membrane and entering the cytosol, Fura-2 AM is cleaved into its activated form, Fura-2 [49]. After binding to the cytosolic free Ca^2+, the peak excitation of Fura-2 shifts from 380 nm (Ca^2+-free state) to 340 nm (Ca^2+-bound state), while the peak emission remains unchanged at around 510 nm. To measure the cytosolic Ca^2+ level, a sequential excitation of Fura-2 is performed at 340 nm and 380 nm; then, the emission signals resulting from each excitation wavelength are measured and the ratio of these signals is calculated. […] Samples were excited using a wavelength of 380 nm for 20 ms, followed by 340 nm for 100 ms, and fluorescence at 510 nm was recorded. Recorded data were then analyzed using NIS-Element AR Version 5.00.00 (Nikon Instruments, Melville, NY, USA).
The change in the fluorescence ratio when the cells were excited at 340 nm and 380 nm (ΔF340/380) during the measurements was calculated by subtracting the ratio obtained at the beginning of the experiment from each subsequent ratio obtained at different time points. […]

With `COc1c(O)cc2oc3cc(O)c(CC=C(C)C)c(O)c3c(=O)c2c1CC=C(C)C` [Alpha-mangostin] the “Decrease of ∆(F340/F380)” value (0.3 µM) was “approximately 25%”, the “∆(F340/F380)” value (0.3 µM) was 0.316 ± 0.030 and the “Decrease of ∆(F340/F380)” value (3 µM) was ~70%. The “∆(F340/F380)” value (3 µM) was 0.144 ± 0.006.
